Measurements as given in patent US20130137084A1, “Single Nucleotide Polymorphism on Chromosome 15 That Predicts HCV Treatment Responses” (Roche Molecular Systems, Inc., priority 2011, published 2013).

Experiments:
HCV = conditions: RBV monotherapy; cited from earlier work
[1] = system: chronic Hepatitis C genotype 1 infection; test: Study NV21075 Phase 2 clinical study, virological response (undetectable HCV RNA) during the first 12 weeks of treatment; type: in vivo, human patients; conditions: for percentage of patients with undetectable HCV RNA levels at the end of 12 weeks of treatment: limit of detection 15 IU/mL, preliminary interim analysis
From the text: Study NV21075 was a randomized double-blinded multicenter Phase 2 clinical study to evaluate the efficacy and safety of danoprevir in combination with peginterferon alfa 2a and ribavirin (triple therapy combination) when dosed for twelve weeks in treatment-naïve patients with chronic Hepatitis C genotype 1 infection as compared to the currently approved combination of peginterferon alfa 2a and ribavirin (Standard of Care or SOC). Patients enrolled in Study NV21075 were randomized into one of four treatment groups (FIG. 1) (approximately 60 patients for Groups A-C, approximately 30 patients for Group D). In the response-guided treatment groups (as described below), patients with an extended RVR (eRVR, defined as undetectable HCV RNA from […]) stopped all therapy at Week 24.
Patients received double blinded experimental treatment with danoprevir at 300 mg TID (Group A), 600 mg BID (Group B), or 900 mg BID (Group C) and standard of care treatment (SOC, Pegasys 180 μg sc qw+Copegus 1000 mg (<75 kg) or 1200 mg (≧75 kg) po qd) for 12 weeks, followed by SOC for 12 weeks. Patients who achieve an RVR, defined as undetectable HCV RNA at week 4, and remain undetectable through week 22 (i.e. achieving eRVR) stopped all treatment at week 24. […] Treatment Group D: Patients received double blinded placebo treatment for 12 weeks, followed by SOC for 36 weeks for a total duration of 48 weeks.
For the interim analysis of NV21075, efficacy during the first 12 weeks of treatment was measured by the percentage of patients with virological response (undetectable HCV RNA as measured by the Roche Cobas® AmpliPrep/Cobas® Taqman® HCV Test v1.0 [limit of detection 15 IU/mL]). Patients were considered non-responders at a scheduled visit if they had missing data, which may have been due to an assessment that was missed or fell outside of the allowable window for that visit, or an early withdrawal from treatment with a missing follow-up assessment.

Compound	effect on the replication of HCV (HCV)	percentage of patients with undetectable HCV RNA levels at the end of 12 weeks of treatment ([1]; Treatment Group A: danoprevir 300 mg TID plus SOC)	percentage of patients with undetectable HCV RNA levels at the end of 12 weeks of treatment ([1]; Treatment Group B: danoprevir 600 mg BID plus SOC)	percentage of patients with undetectable HCV RNA levels at the end of 12 weeks of treatment ([1]; Treatment Group C: danoprevir 900 mg BID plus SOC)	change in mean HCV RNA levels ([1]; danoprevir plus SOC, within the first 2 to 4 weeks of treatment, remained lower than SOC up to Week 12)
NC(=O)c1ncn([C@@H]2O[C@H](CO)[C@@H](O)[C@H]2O)n1 [ribavirin, 1-((2R,3R,4S,5R)-3,4-Dihydroxy-5-hydroxymethyl-tetrahydro-furan-2-yl)-1H-[1,2,4]triazole-3-carboxylic acid amide]	little or no effect	–	–	–	–
CC(C)(C)OC(=O)N[C@H]1CCCCC/C=C\[C@@H]2C[C@@]2(C(=O)NS(=O)(=O)C2CC2)NC(=O)[C@@H]2C[C@@H](OC(=O)N3Cc4cccc(F)c4C3)CN2C1=O [Danoprevir, 4-Fluoro-1,3-dihydro-isoindole-2-carboxylic acid (Z)-(1S,4R,6S,14S,18R)-14-tert-butoxycarbonylamino-4-cyclopropanesulfonylaminocarbonyl-2,15-dioxo-3,16-diaza-tricyclo[14.3.0.0*4,6*]nonadec-7-en-18-yl ester]	–	88.1%	89.2%	92.0%	precipitous decline
